Measured values from article PMC11110727, “Exploiting thiol-functionalized benzosiloxaboroles for achieving diverse substitution patterns – synthesis, characterization and biological evaluation of promising antibacterial agents” (RSC Medicinal Chemistry, 2024).
≈ marks a conversion by molar mass, not a printed value. Like-named read-outs stand apart in the source and are kept apart here.

Key:
[1] = system: Gram-negative rods; experiment: Antibacterial activity against Gram-negative rods with or without PAβN (text summaries); assay type: cell-based; conditions: Gram-negative rods
Method: Direct antimicrobial activity was determined against the following standard strains: (1) Gram-positive cocci: methicillin-sensitive Staphylococcus aureus ATCC 6538P (MSSA), methicillin-resistant S. aureus subsp. aureus ATCC 43300 (MRSA), S. epidermidis ATCC 12228, Enterococcus faecium ATCC 6057, E. faecalis ATCC 29212, Bacillus subtilis ATCC 6633; (2) Gram-negative bacteria from Enterobacteriales order: Klebsiella pneumoniae ATCC 13883, Escherichia coli ATCC 25922, Enterobacter cloacae DSM 6234, Proteus mirabilis ATCC 12453, Serratia marcescens ATCC 13880; (3) Gram-negative non-fermentative rods: Acinetobacter baumannii ATCC 19606, Pseudomonas aeruginosa ATCC 27853, Stenotrophomonas maltophilia ATCC 12714, S. maltophilia ATCC 13637, Burkholderia cepacia ATCC 25416, Bordetella bronchiseptica ATCC 4617; (4) yeasts: Candida albicans ATCC 90028, C. krusei ATCC 6258, C. parapsilosis ATCC 22019, C. tropicalis (Castellani) Berkhout ATCC 750, C. tropicalis IBA 171, C. guilliermondii IBA 155, and Saccharomyces cerevisiae ATCC 9763. Moreover, 5 clinical strains of methicillin-resistant S. aureus were also included: NMI 664 K, NMI 1576 K, NMI 1712 K, NMI 1991 K, and NMI 2541 K. All strains were stored at −80 °C. Prior to testing, each bacterial strain was subcultured twice on tryptic soy agar TSA (bioMerieux) medium and yeast strains on Sabouraud dextrose agar (bioMerieux) for 24–48 h at 30 °C to ensure viability. The antimicrobial activity was evaluated as previously described[26] by the disc-diffusion method and the MIC determination assays according to the EUCAST (ref. [71] and [72]) and CLSI (ref. [53] and [73]) recommendations. Assessment of bactericidal (MBC) and fungicidal (MFC) activities was performed according to the CLSI recommendations.[54,74] […] The new benzosiloxaboroles were dissolved in DMSO (Sigma).
Considering that the MDR efflux pumps often contribute to Gram-negative rod resistance, the MIC values of studied agents, with or without the pump inhibitor, PAβN (20 μg mL^−1) (Sigma), were determined.[75] The MIC was determined using Mueller–Hinton II broth medium (MHB) (Becton Dickinson) by the broth microdilution method, according to the CLSI guideliness.[53] To minimize the influence of PAβN on the destabilization of bacterial cell covers, the tests were conducted in the presence of 1 mM MgSO4 (Sigma).[76] At least a 4-fold reduction in the MIC value after the addition of PAβN was considered significant.[56,77]

[2] = system: S. aureus NMI 1712 K MRSA; experiment: Antibacterial activity against clinical MRSA: MIC/MBC; assay type: cell-based; conditions: Staphylococcus aureus
Method: (§1) Direct antimicrobial activity was determined against the following standard strains: (1) Gram-positive cocci: methicillin-sensitive Staphylococcus aureus ATCC 6538P (MSSA), methicillin-resistant S. aureus subsp. aureus ATCC 43300 (MRSA), S. epidermidis ATCC 12228, Enterococcus faecium ATCC 6057, E. faecalis ATCC 29212, Bacillus subtilis ATCC 6633; (2) Gram-negative bacteria from Enterobacteriales order: Klebsiella pneumoniae ATCC 13883, Escherichia coli ATCC 25922, Enterobacter cloacae DSM 6234, Proteus mirabilis ATCC 12453, Serratia marcescens ATCC 13880; (3) Gram-negative non-fermentative rods: Acinetobacter baumannii ATCC 19606, Pseudomonas aeruginosa ATCC 27853, Stenotrophomonas maltophilia ATCC 12714, S. maltophilia ATCC 13637, Burkholderia cepacia ATCC 25416, Bordetella bronchiseptica ATCC 4617; (4) yeasts: Candida albicans ATCC 90028, C. krusei ATCC 6258, C. parapsilosis ATCC 22019, C. tropicalis (Castellani) Berkhout ATCC 750, C. tropicalis IBA 171, C. guilliermondii IBA 155, and Saccharomyces cerevisiae ATCC 9763. Moreover, 5 clinical strains of methicillin-resistant S. aureus were also included: NMI 664 K, NMI 1576 K, NMI 1712 K, NMI 1991 K, and NMI 2541 K. All strains were stored at −80 °C. Prior to testing, each bacterial strain was subcultured twice on tryptic soy agar TSA (bioMerieux) medium and yeast strains on Sabouraud dextrose agar (bioMerieux) for 24–48 h at 30 °C to ensure viability. The antimicrobial activity was evaluated as previously described[26] by the disc-diffusion method and the MIC determination assays according to the EUCAST (ref. [71] and [72]) and CLSI (ref. [53] and [73]) recommendations. Assessment of bactericidal (MBC) and fungicidal (MFC) activities was performed according to the CLSI recommendations.[54,74] The following reference agents were used: fluconazole (in the case of fungi), linezolid (for Gram-positive bacteria), and nitrofurantoin (for Gram-negative rods). The new benzosiloxaboroles were dissolved in DMSO (Sigma).

[3] = system: S. aureus NMI 664 K MRSA; experiment: as above; assay type: cell-based; conditions: Staphylococcus aureus
Method: as §1

[4] = system: S. aureus NMI 2541 K MRSA; experiment: as above; assay type: cell-based; conditions: Staphylococcus aureus
Method: as §1

[5] = system: S. aureus NMI 1991 K MRSA; experiment: as above; assay type: cell-based; conditions: Staphylococcus aureus
Method: as §1

[6] = system: S. aureus NMI 1576 K MRSA; experiment: as above; assay type: cell-based; conditions: Staphylococcus aureus
Method: as §1

[7] = physchem
Method: 0.1 M NaOH in H2O/MeOH (1 : 1 v/v).
The acidity constants of benzosiloxaboroles 1e, 2e, 6, 20 and 22–24 were determined by standard pH titration with 0.05 M aq. NaOH. The measurements were performed using a thermostated (25.0 °C) glass vessel equipped with a magnetic stirrer and a 10 mL burette. Prior to the measurement, the pH glass electrode was calibrated using borax and phosphate buffers. A solution of the analyzed compound (ca. 20–40 mg) in a mixture of MeOH/H2O (v/v 1 : 1, 30 mL) was titrated until the pH of the solution exceeded the value of 12.0.

[8] = NMI 1712 K MRSA, read-out: MBC (first MBC where Eagle effect)
[9] = NMI 664 K MRSA, read-out: MBC (first MBC where Eagle effect)
[10] = NMI 2541 K MRSA, read-out: MBC (first MBC where Eagle effect)
[11] = NMI 1991 K MRSA, read-out: MBC (first MBC where Eagle effect)
[12] = NMI 1576 K MRSA, read-out: MBC (first MBC where Eagle effect)
[13] = MRSA, read-out: MBC (first MBC where Eagle effect)
[14] = MRSA, read-out: second MBC (Eagle effect)

In the case of `C[Si]1(C)OB(O)c2ccc(SCCS(=O)(=O)c3ccccc3)c(F)c21` [Compound 21, 7-Fluoro-1,1-dimethyl-6-((2-(phenylsulfonyl)ethyl)thio)benzo[c][1,2,5]oxasilaborol-3(1H)-ol], the “efflux assay result (MIC with PAβN)” value [1] is reported as “actively extruded from bacterial cells”.

With `CC(=O)CSc1ccc2c(c1F)[Si](C)(C)OB2O` [Compound 22, 1-((7-Fluoro-3-hydroxy-1,1-dimethyl-1,3-dihydrobenzo[c][1,2,5]oxasilaborol-6-yl)thio)propan-2-one] the MBC [2, 8] was 400 µg/mL (≈ 1410 µM), the MIC ([2]; NMI 1712 K MRSA, read-out: MIC) was 6.25 µg/mL (≈ 22 µM) and the MBC [3, 9] was 200 µg/mL (≈ 704 µM). The MIC ([3]; NMI 664 K MRSA, read-out: MIC) was 6.25 µg/mL (≈ 22 µM), the MBC [4, 10] was 200 µg/mL (≈ 704 µM) and the MIC ([4]; NMI 2541 K MRSA, read-out: MIC) was 3.12 µg/mL (≈ 11 µM). The MBC [5, 11] was 200 µg/mL (≈ 704 µM), the MIC ([5]; NMI 1991 K MRSA, read-out: MIC) was 3.12 µg/mL (≈ 11 µM) and the MBC [6, 12] was 200 µg/mL (≈ 704 µM). It also gave an MIC ([6]; NMI 1576 K MRSA, read-out: MIC) of 6.25 µg/mL (≈ 22 µM) and a pKa [7] of 6.4.

`C[Si]1(C)OB(O)c2ccc(SCC(=O)c3ccccc3)c(F)c21` [Compound 23, 2-((7-Fluoro-3-hydroxy-1,1-dimethyl-1,3-dihydrobenzo[c][1,2,5]oxasilaborol-6-yl)thio)-1-phenylethan-1-one] showed an MBC [2, 8] of 25 µg/mL (≈ 72.2 µM), an MIC ([2]; NMI 1712 K MRSA, read-out: MIC) of 3.12 µg/mL (≈ 9.01 µM) and an MBC ([2]; NMI 1712 K MRSA, read-out: second MBC (Eagle effect)) of 200 µg/mL (≈ 578 µM). For the same compound, the MBC [3, 9] was 3.12 µg/mL (≈ 9.01 µM), the MIC ([3]; NMI 664 K MRSA, read-out: MIC) was 3.12 µg/mL (≈ 9.01 µM) and the MBC ([3]; NMI 664 K MRSA, read-out: second MBC (Eagle effect)) was 200 µg/mL (≈ 578 µM). The MBC [4, 10] was 6.25 µg/mL (≈ 18 µM), the MIC ([4]; NMI 2541 K MRSA, read-out: MIC) was 1.56 µg/mL (≈ 4.51 µM) and the MBC ([4]; NMI 2541 K MRSA, read-out: second MBC (Eagle effect)) was 200 µg/mL (≈ 578 µM). For the same compound, the MBC [5, 11] was 3.12 µg/mL (≈ 9.01 µM), the MIC ([5]; NMI 1991 K MRSA, read-out: MIC) was 1.56 µg/mL (≈ 4.51 µM) and the MBC ([5]; NMI 1991 K MRSA, read-out: second MBC (Eagle effect)) was 200 µg/mL (≈ 578 µM). It also gave an MBC [6, 12] of 6.25 µg/mL (≈ 18 µM), an MIC ([6]; NMI 1576 K MRSA, read-out: MIC) of 3.12 µg/mL (≈ 9.01 µM) and an MBC ([6]; NMI 1576 K MRSA, read-out: second MBC (Eagle effect)) of 100 µg/mL (≈ 289 µM). It also gave a pKa [7] of 6.3.

`CCOP(=O)(OCC)Sc1c(F)cc2c(c1F)[Si](C)(C)OB2O` [Compound 24, S-(5,7-Difluoro-3-hydroxy-1,1-dimethyl-1,3-dihydrobenzo[c][1,2,5]oxasilaborol-6-yl) O,O-diethyl phosphorothioate] gave an MIC ([2]; MRSA) of 12.5 µg/mL (≈ 32.7 µM), an MBC [2, 13] of 25 µg/mL (≈ 65.4 µM) and an MBC [2, 14] greater than 400 µg/mL. It also gave an MIC ([3]; MRSA) of 6.25 µg/mL (≈ 16.4 µM), an MBC [3, 13] of 25 µg/mL (≈ 65.4 µM) and an MBC [3, 14] greater than 400 µg/mL. The MIC ([4]; MRSA) was 12.5 µg/mL (≈ 32.7 µM), the MBC [4, 13] was 12.5 µg/mL (≈ 32.7 µM) and the MBC [4, 14] was greater than 400 µg/mL. The MIC ([5]; MRSA) was 12.5 µg/mL (≈ 32.7 µM), the MBC [5, 13] was 12.5 µg/mL (≈ 32.7 µM) and the MBC [5, 14] was greater than 400 µg/mL. The MIC ([6]; MRSA) was 6.25 µg/mL (≈ 16.4 µM), the MBC [6, 13] was 12.5 µg/mL (≈ 32.7 µM) and the MBC [6, 14] was 400 µg/mL (≈ 1050 µM). For the same compound, the pKa [7] was 4.9.

`C[Si]1(C)OB(O)c2ccc(SC(=O)c3ccc(C(F)(F)F)cc3)c(F)c21` [Compound 25, S-(7-Fluoro-3-hydroxy-1,1-dimethyl-1,3-dihydrobenzo[c][1,2,5]oxasilaborol-6-yl) 4-(trifluoromethyl)benzothioate] gave an MBC [2, 8] of 25 µg/mL (≈ 62.5 µM), an MIC ([2]; NMI 1712 K MRSA, read-out: MIC) of 12.5 µg/mL (≈ 31.2 µM) and an MBC [3, 9] of 25 µg/mL (≈ 62.5 µM). The MIC ([3]; NMI 664 K MRSA, read-out: MIC) was 12.5 µg/mL (≈ 31.2 µM), the MBC [4, 10] was 25 µg/mL (≈ 62.5 µM) and the MIC ([4]; NMI 2541 K MRSA, read-out: MIC) was 12.5 µg/mL (≈ 31.2 µM). For the same compound, the MBC [5, 11] was 50 µg/mL (≈ 125 µM), the MIC ([5]; NMI 1991 K MRSA, read-out: MIC) was 25 µg/mL (≈ 62.5 µM) and the MBC [6, 12] was 50 µg/mL (≈ 125 µM). It also gave an MIC ([6]; NMI 1576 K MRSA, read-out: MIC) of 25 µg/mL (≈ 62.5 µM).
